These results are taken from PubChem BioAssay AID2060344 (Molecular Pharmacology Branch, DTP, NCI, 2025).

pIC50: −log10 of the molar value. “And” between values parts separate entries of the source, which are not always exact repeats. Identical values can stand only once.

The assay deals with SK-MEL-2 multi-cell spheroids, viability. Nature of the assay: Anticancer human tumor SK-MEL-2 cell line growth inhibition [TAK].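 For all read-outs here: spheroids exposed to drugs for seven days before readout.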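 For viability, T/C: percent of DMSO vehicle control luminescence so 100% = untreated viability.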 As to conditions: for viability, T/C: stronger effect = lower value. The gist of the method:
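Tumor cells were grown as spheroids with HUVEC and hMSC (60:25:15) and treated with targeted agents combined with TAK-243 or ipatasertib. Drugs were tested in half-log steps down from near the clinical Cmax, or from 10 microM where Cmax was unknown.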

[1] abbreviates: curve of first compound, second compound 0.3 µM.
The mark [2] stands for this setting: curve of first compound, second compound 0.949 µM.
The mark [3] stands for this setting: curve of first compound, second compound 3 µM.
Setting [4] is: curve of first compound, second compound 9.49 µM.
Setting [5] is: curve of first compound, second compound 30 µM.
[6] abbreviates: second compound 0.3 µM, first compound 0.0316 µM.
[7] abbreviates: second compound 0.3 µM, first compound 0.1 µM.
[8] abbreviates: second compound 0.3 µM, first compound 0.316 µM.
Setting [9] is: second compound 0.3 µM, first compound 1 µM.
The mark [10] stands for this setting: second compound 0.3 µM, first compound 3.16 µM.
[11] abbreviates: second compound 0.3 µM, first compound 10 µM.
Where [12] appears, read: second compound 0.949 µM, first compound 0.0316 µM.
The mark [13] stands for this setting: second compound 0.949 µM, first compound 0.1 µM.
Where [14] appears, read: second compound 0.949 µM, first compound 0.316 µM.
Where [15] appears, read: second compound 0.949 µM, first compound 1 µM.
The mark [16] stands for this setting: second compound 0.949 µM, first compound 3.16 µM.
Where [17] appears, read: second compound 0.949 µM, first compound 10 µM.
The mark [18] stands for this setting: second compound 3 µM, first compound 0.0316 µM.
The mark [19] stands for this setting: second compound 3 µM, first compound 0.1 µM.
The mark [20] stands for this setting: second compound 3 µM, first compound 0.316 µM.
The mark [21] stands for this setting: second compound 3 µM, first compound 1 µM.
The mark [22] stands for this setting: second compound 3 µM, first compound 3.16 µM.
[23] abbreviates: second compound 3 µM, first compound 10 µM.
The mark [24] stands for this setting: second compound 9.49 µM, first compound 0.0316 µM.
Where [25] appears, read: second compound 9.49 µM, first compound 0.1 µM.
Where [26] appears, read: second compound 9.49 µM, first compound 0.316 µM.
The mark [27] stands for this setting: second compound 9.49 µM, first compound 1 µM.
[28] abbreviates: second compound 9.49 µM, first compound 3.16 µM.
The mark [29] stands for this setting: second compound 9.49 µM, first compound 10 µM.
The mark [30] stands for this setting: second compound 30 µM, first compound 0.0316 µM.
Setting [31] is: second compound 30 µM, first compound 0.1 µM.
Where [32] appears, read: second compound 30 µM, first compound 0.316 µM.
Setting [33] is: second compound 30 µM, first compound 1 µM.
Setting [34] is: second compound 30 µM, first compound 3.16 µM.
The mark [35] stands for this setting: second compound 30 µM, first compound 10 µM.

Consider `CC(C)(C)c1nc(-c2cccc(NS(=O)(=O)c3c(F)cccc3F)c2F)c(-c2ccnc(N)n2)s1` + CC(C)NCC(C(=O)N1CCN(c2ncnc3c2C(C)CC3O)CC1)c1ccc(Cl)cc1, for which the pIC50 was 6.23 under setting [1]; 6.30 under setting [2]; 6.49 under setting [3]; 6.55 under setting [4]; 6.64 under setting [5]. The viability, T/C is, setting by setting: under setting [6], 138%; under setting [7], 118%; under setting [8], 75.9%; under setting [9], 28.6%; under setting [10], 12.5%; under setting [11], 17.2%. The viability, T/C is 119% under setting [12]; 109% under setting [13]; 66.3% under setting [14]; 25.6% under setting [15]; 8.33% under setting [16]; 15.6% under setting [17]. For the same molecule, the viability, T/C was 108% under setting [18]; 105% under setting [19]; 50.1% under setting [20]; 15.7% under setting [21]; 6.41% under setting [22]; 11.7% under setting [23]. The viability, T/C reads like this: under setting [24], 88.1%; under setting [25], 85.5%; under setting [26], 46.5%; under setting [27], 9.65%; under setting [28], 4.3%; under setting [29], 10.2%. Besides, the viability, T/C under setting [30] was 73.1%; the viability, T/C under setting [31] is 73.8%; the viability, T/C under setting [32] is 41.1%; the viability, T/C under setting [33] is 9.6%; the viability, T/C under setting [34] was 5.11%; the viability, T/C under setting [35] was 10%.
For `Cc1nc(NC(=O)N2CCCC2C(N)=O)sc1-c1ccnc(C(C)(C)C(F)(F)F)c1` (centres undefined), the viability, T/C was 100% and 105% (compound 0.0316 µM); 91.2% and 91.5% (compound 0.1 µM); 84.4% and 85.5% (compound 0.316 µM); 80.7% and 83.9% (compound 1 µM); 68.8% and 66.5% (compound 3.16 µM); 55.6% and 54.2% (compound 10 µM). For the same molecule, the pIC50 (curve of compound) was under 5.00.
For `CC(C)n1nc(-c2ccc3oc(N)nc3c2)c2c(N)ncnc21`, the viability, T/C was 109% and 105% (compound 0.000316 µM); 99.8% and 100% (compound 0.001 µM); 88.6% and 89.8% (compound 0.00316 µM); 86.9% and 76% (compound 0.01 µM); 52.2% and 55.5% (compound 0.0316 µM); 29.2% and 31.2% (compound 0.1 µM). Moreover, for the setting “curve of compound”, the pIC50 is 7.39.
On to `Cc1nc(NC(=O)N2CCCC2C(N)=O)sc1-c1ccnc(C(C)(C)C(F)(F)F)c1` (centres undefined) + CC(C)NCC(C(=O)N1CCN(c2ncnc3c2C(C)CC3O)CC1)c1ccc(Cl)cc1, for which the negative-log IC50 (pIC50) was under 5.00 under setting [1]; under 5.00 under setting [2]; under 5.00 under setting [3]; under 5.00 under setting [4]; 6.66 under setting [5]. Further, the viability, T/C runs as follows: under setting [6], 97%; under setting [7], 84.7%; under setting [8], 70.5%; under setting [9], 79.8%; under setting [10], 75.3%; under setting [11], 55.6%. The viability, T/C is, setting by setting: under setting [12], 85%; under setting [13], 74.7%; under setting [14], 64.8%; under setting [15], 65.8%; under setting [16], 59.5%; under setting [17], 49.4%. The viability, T/C reads like this: under setting [18], 66.1%; under setting [19], 67.3%; under setting [20], 52.8%; under setting [21], 58.8%; under setting [22], 57.3%; under setting [23], 51.2%. Besides, the viability, T/C runs as follows: under setting [24], 56%; under setting [25], 56.4%; under setting [26], 48.7%; under setting [27], 51.1%; under setting [28], 55.9%; under setting [29], 49.2%. Moreover, the viability, T/C under setting [30] is 52.4%; the viability, T/C under setting [31] is 55.8%; the viability, T/C under setting [32] was 46.2%; the viability, T/C under setting [33] was 43.7%; the viability, T/C under setting [34] is 50.3%; the viability, T/C under setting [35] is 40%.
